Biological target: T1, EphA8 (Homo sapiens, UniProt P29322)
T1 sequence (P29322 28-1005): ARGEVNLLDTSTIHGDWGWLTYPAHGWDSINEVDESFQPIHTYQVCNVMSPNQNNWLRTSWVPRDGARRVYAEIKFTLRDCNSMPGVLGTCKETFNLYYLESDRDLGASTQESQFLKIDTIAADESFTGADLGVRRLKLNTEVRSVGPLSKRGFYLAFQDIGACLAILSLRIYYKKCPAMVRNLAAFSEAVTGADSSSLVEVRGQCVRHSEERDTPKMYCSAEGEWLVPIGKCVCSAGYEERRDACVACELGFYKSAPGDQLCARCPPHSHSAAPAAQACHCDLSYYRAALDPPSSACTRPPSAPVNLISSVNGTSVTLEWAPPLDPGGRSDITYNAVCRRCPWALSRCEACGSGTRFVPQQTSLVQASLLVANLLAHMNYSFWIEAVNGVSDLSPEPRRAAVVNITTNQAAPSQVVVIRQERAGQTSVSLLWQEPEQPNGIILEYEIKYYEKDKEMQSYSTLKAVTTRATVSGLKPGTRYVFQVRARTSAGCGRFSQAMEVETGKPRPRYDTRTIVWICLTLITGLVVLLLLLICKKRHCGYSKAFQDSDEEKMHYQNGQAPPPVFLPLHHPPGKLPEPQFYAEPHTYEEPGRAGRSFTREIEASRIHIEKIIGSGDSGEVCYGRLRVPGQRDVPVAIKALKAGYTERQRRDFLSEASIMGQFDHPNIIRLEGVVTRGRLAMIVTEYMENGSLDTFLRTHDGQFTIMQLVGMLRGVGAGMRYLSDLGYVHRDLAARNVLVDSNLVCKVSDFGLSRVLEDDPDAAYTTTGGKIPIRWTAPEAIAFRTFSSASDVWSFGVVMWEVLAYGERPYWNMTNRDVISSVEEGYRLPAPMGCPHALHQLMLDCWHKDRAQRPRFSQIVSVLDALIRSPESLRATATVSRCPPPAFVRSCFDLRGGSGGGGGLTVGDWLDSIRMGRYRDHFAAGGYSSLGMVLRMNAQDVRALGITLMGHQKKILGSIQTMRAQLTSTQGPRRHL
Test: EphA8 Kinase Activity Assay
Assay type: biochemical
Details: read-out: EphA8, % INH, at 30 uM
Method: Nunc Maxisorb plates are coated with streptavidin by overnight incubation with 100 μL per well of 1 μg/ml Streptavidin in DPBS. Prior to the start of the experiment, the plates are washed with TBST (3×200 μL) and blocked for at least 1 hour by adding 150 μL of 5% BSA/TBST. The plates are washed with TBST (3×200 μL/well) and left dry immediately before the capture step.
The test articles and control (Staurosporine) are prepared using the following assay buffer @ 3× desired final concentration (50 mM Tris-HCl, 0.02 mg/ml BSA, 10 mM MgCl2, 0.1 mM Na3VO4, 1 mM EGTA, 12.5 μM ATP, 0.01% NP-40, 1 mM DTT in 10% glycerol/water). In a reaction plate are added rapidly 20 μl test article (or control) and 20 μl EphA8 (0.12 ng/μl final concentration). The plate is incubated for 15 minutes. To the reaction plate is added 20 μl of Pyk-2 (0.75 ng/μl final concentration). The plate is incubated at room temperature for one hour. From the reaction plate, 50 μl is transferred to the streptavidin coated plate. The capture plate is incubated at room temperature for 30 minutes, then washed 6× with TBST. To the capture plate is added 100 μL/well of Cell Signaling anti-phospho tyrosine at a dilution of 1:3000 in 2% BSA/TBST. The plate is incubated for one hour at room temperature then washed 6× with TBST. To the capture plate is added 100 μL/well of Alkaline Phosphatase Tagged Goat anti Mouse Antibody at a dilution of 1:4000 in 2% BSA/TBST. The plate is incubated for one hour at room temperature then washed 6× with TBST. The fluorescent readout is initiated by the addition of 100 μl/well of Attophos reagent (6 mg/10 mL). The reading is done on the Perkin Elmer Envision system.

| Compound | inhibition at 30 µM [%] |
| --- | --- |
| Nc1nc(N2CCN(CCCc3ccccc3)c3ccccc3C2)c2nc[nH]c2n1 [Compound 40, 6-[1-(3-phenylpropyl)-1,2,3,5-tetrahydro-4H-1,4-benzodiazepin-4-yl]-9H-purin-2-amine] | < 50 |
| COc1ccc(OC)c(CN2CCN(c3nc(N)nc4[nH]cnc34)Cc3ccccc32)c1 [Compound 35, 6-[1-(2,5-dimethoxybenzyl)-1,2,3,5-tetrahydro-4H-1,4-benzodiazepin-4-yl]-9H-purin-2-amine] | < 50 |
| Nc1nc(N2CCN(Cc3cccc(Cl)c3)c3ccccc3C2)c2cn[nH]c2n1 [Compound 25, 4-[1-(3-chlorobenzyl)-1,2,3,5-tetrahydro-4H-1,4-benzodiazepin-4-yl]-1H-pyrazolo[3,4-d]pyrimidin-6-amine] | < 50 |
| Nc1nc(N2CCN(Cc3ccc(F)c(F)c3)c3ccccc3C2)c2cn[nH]c2n1 [Compound 47, 4-[1-(3,4-difluorobenzyl)-1,2,3,5-tetrahydro-4H-1,4-benzodiazepin-4-yl]-1H-pyrazolo[3,4-d]pyrimidin-6-amine] | < 50 |
| COc1cc2c(cc1OC)C(CCc1ccccc1)N(c1nc(N)nc3[nH]ncc13)CC2 (stereo not drawn) [Compound 51, 4-[6,7-dimethoxy-1-(2-phenylethyl)-3,4-dihydroisoquinolin-2(1H)-yl]-1H-pyrazolo[3,4-d]pyrimidin-6-amine] | < 50 |
| Nc1nc(N2CCN(CCCc3ccccc3)c3ccccc3C2)c2cn[nH]c2n1 [Compound 41, 4-[1-(3-phenylpropyl)-1,2,3,5-tetrahydro-4H-1,4-benzodiazepin-4-yl]-1H-pyrazolo[3,4-d]pyrimidin-6-amine] | < 50 |
| COc1ccccc1CN1CCN(c2nc(N)nc3[nH]ncc23)Cc2ccccc21 [Compound 10, 4-[1-(2-methoxybenzyl)-1,2,3,5-tetrahydro-4H-1,4-benzodiazepin-4-yl]-1H-pyrazolo[3,4-d]pyrimidin-6-amine] | < 50 |
| Nc1nc(N2CCN(Cc3ccc(Cl)cc3Cl)c3ccccc3C2)c2nc[nH]c2n1 [Compound 31, 6-[1-(2,4-dichlorobenzyl)-1,2,3,5-tetrahydro-4H-1,4-benzodiazepin-4-yl]-9H-purin-2-amine] | < 50 |
| Nc1nc(N2CCN(CCCc3cccc(Cl)c3)c3ccccc3C2)c2nc[nH]c2n1 [Compound 7, 6-{1-[3-(3-chlorophenyl)propyl]-1,2,3,5-tetrahydro-4H-1,4-benzodiazepin-4-yl}-9H-purin-2-amine] | < 50 |
| Nc1nc(N2CCN(Cc3cccc4ccccc34)c3ccccc3C2)c2nc[nH]c2n1 [Compound 17, 6-[1-(1-naphthylmethyl)-1,2,3,5-tetrahydro-4H-1,4-benzodiazepin-4-yl]-9H-purin-2-amine] | 50 to 79 |
| Cc1ccc(CCCN2CCN(c3nc(N)nc4[nH]cnc34)Cc3ccccc32)cc1 [Compound 44, 6-{1-[3-(4-methylphenyl)propyl]-1,2,3,5-tetrahydro-4H-1,4-benzodiazepin-4-yl}-9H-purin-2-amine] | < 50 |
| Nc1nc(N2CCN(Cc3ccc(F)cc3F)c3ccccc3C2)c2nc[nH]c2n1 [Compound 37, 6-[1-(2,4-difluorobenzyl)-1,2,3,5-tetrahydro-4H-1,4-benzodiazepin-4-yl]-9H-purin-2-amine] | < 50 |
| Nc1nc(N2CCN(Cc3ccc(F)cc3)c3ccccc3C2)c2cn[nH]c2n1 [Compound 16, 4-[1-(4-fluorobenzyl)-1,2,3,5-tetrahydro-4H-1,4-benzodiazepin-4-yl]-1H-pyrazolo[3,4-d]pyrimidin-6-amine] | 50 to 79 |
| Cc1ccc(CCCN2CCN(c3nc(N)nc4[nH]ncc34)Cc3ccccc32)cc1 [Compound 45, 4-{1-[3-(4-methylphenyl)propyl]-1,2,3,5-tetrahydro-4H-1,4-benzodiazepin-4-yl}-1H-pyrazolo[3,4-d]pyrimidin-6-amine] | 50 to 79 |
| COc1cc2c(cc1OC)C(c1cccc(Cl)c1F)N(c1nc(N)nc3[nH]cnc13)CC2 (stereo not drawn) [Compound 49, 6-[1-(3-chloro-2-fluorophenyl)-6,7-dimethoxy-3,4-dihydroisoquinolin-2(1H)-yl]-9H-purin-2-amine] | < 50 |
| Nc1nc(N2CCN(Cc3ccc(F)cc3F)c3ccccc3C2)c2cn[nH]c2n1 [Compound 38, 4-[1-(2,4-difluorobenzyl)-1,2,3,5-tetrahydro-4H-1,4-benzodiazepin-4-yl]-1H-pyrazolo[3,4-d]pyrimidin-6-amine] | < 50 |
| Nc1nc(N2CCN(Cc3cccc(F)c3)c3ccccc3C2)c2cn[nH]c2n1 [Compound 6, 4-[1-(3-fluorobenzyl)-1,2,3,5-tetrahydro-4H-1,4-benzodiazepin-4-yl]-1H-pyrazolo[3,4-d]pyrimidin-6-amine] | 50 to 79 |

Now from value to compound:

| inhibition at 30 µM [%] | Compound |
| --- | --- |
| < 50 | Cc1cccc(CN2CCN(c3nc(N)nc4[nH]cnc34)Cc3ccccc32)c1 [Compound 33, 6-[1-(3-methylbenzyl)-1,2,3,5-tetrahydro-4H-1,4-benzodiazepin-4-yl]-9H-purin-2-amine] |
| < 50 | COc1ccc(CN2CCN(c3nc(N)nc4[nH]cnc34)Cc3ccccc32)cc1OC [Compound 27, 6-[1-(3,4-dimethoxybenzyl)-1,2,3,5-tetrahydro-4H-1,4-benzodiazepin-4-yl]-9H-purin-2-amine] |
| < 50 | COc1cccc(CN2CCN(c3nc(N)nc4[nH]cnc34)Cc3ccccc32)c1 [Compound 2, 6-[1-(3-methoxybenzyl)-1,2,3,5-tetrahydro-4H-1,4-benzodiazepin-4-yl]-9H-purin-2-amine] |
| < 50 | Nc1nc(N2CCN(Cc3ccccc3Cl)c3ccccc3C2)c2nc[nH]c2n1 [Compound 13, 6-[1-(2-chlorobenzyl)-1,2,3,5-tetrahydro-4H-1,4-benzodiazepin-4-yl]-9H-purin-2-amine] |
| 50 to 79 | Nc1nc(N2CCN(Cc3cccc(Cl)c3)c3ccccc3C2)c2nc[nH]c2n1 [Compound 24, 6-[1-(3-chlorobenzyl)-1,2,3,5-tetrahydro-4H-1,4-benzodiazepin-4-yl]-9H-purin-2-amine] |
| < 50 | Nc1nc(N2CCN(Cc3ccc(F)c(F)c3)c3ccccc3C2)c2nc[nH]c2n1 [Compound 46, 6-[1-(3,4-difluorobenzyl)-1,2,3,5-tetrahydro-4H-1,4-benzodiazepin-4-yl]-9H-purin-2-amine] |
| < 50 | COc1ccccc1CN1CCN(c2nc(N)nc3[nH]cnc23)Cc2ccccc21 [Compound 9, 6-[1-(2-methoxybenzyl)-1,2,3,5-tetrahydro-4H-1,4-benzodiazepin-4-yl]-9H-purin-2-amine] |
| < 50 | Cc1ccccc1CN1CCN(c2nc(N)nc3[nH]cnc23)Cc2ccccc21 [Compound 11, 6-[1-(2-methylbenzyl)-1,2,3,5-tetrahydro-4H-1,4-benzodiazepin-4-yl]-9H-purin-2-amine] |
| < 50 | Nc1nc(N2CCN(Cc3ccc(Cl)c(Cl)c3)c3ccccc3C2)c2nc[nH]c2n1 [Compound 42, 6-[1-(3,4-dichlorobenzyl)-1,2,3,5-tetrahydro-4H-1,4-benzodiazepin-4-yl]-9H-purin-2-amine] |
| < 50 | CC(C)c1ccc(CN2CCN(c3nc(N)nc4[nH]cnc34)Cc3ccccc32)cc1 [Compound 3, 6-[1-(4-isopropylbenzyl)-1,2,3,5-tetrahydro-4H-1,4-benzodiazepin-4-yl]-9H-purin-2-amine] |

Reference: patent US8343961B2, “Substituted heterocyclic compounds” (ArQule, Inc., priority 2009, dated 2013)
